ChEMBL document CHEMBL1123796, “New antitumor agents containing the anthracene nucleus” (1987)
Each block holds one compound with its values, some of them ahead of it.

Key:
Type in all cases: functional
[1] = test system: RPMI-8226; experiment: In vitro inhibition of human 8226 myeloma tumor cell line growth.; details: read-out: ID50 (the source's name)
[2] = In vitro inhibition of human UACC-66 ovarian tumor cell line growth.; details: read-out: ID50 (the source's name)
[3] = test system: WiDr; experiment: Tested in vitro for inhibitory activity of human tumor cell growth against WIDR colon tumor, by using clonogenic assays.; details: read-out: ID50 (the source's name)
[4] = test system: L1210; experiment: Effect on DNA synthesis was determined by incorporation of radioligand into L1210 murine leukemia at a concentration of 1 ug/mL. (*: >50% cell kill); details: Mus musculus
[5] = test system: RPMI-8226; experiment: Effect on protein synthesis was determined by incorporation of radioligand into 8226 human myeloma cells at a concentration of 0.1 ug/mL
[6] = test system: L1210; experiment: Effect on RNA synthesis was determined by incorporation of radioligand into L1210 murine leukemia at a concentration of 10 ug/mL (*: >1 log cell kill); details: Mus musculus
[7] = Tested in vitro for inhibitory activity of human tumor cell growth against HEC 1A endometrial tumor, by using clonogenic assays.; details: read-out: ID50 (the source's name)
[8] = test system: RPMI-8226; experiment: Effect on DNA synthesis was determined by incorporation of radioligand into 8226 human myeloma cells at a concentration of 10 ug/mL (*: >1 log cell kill)
[9] = test system: RPMI-8226; experiment: Effect on protein synthesis was determined by incorporation of radioligand into 8226 human myeloma cells at a concentration of 1 ug/mL. (*: >50% cell kill)
[10] = test system: RPMI-8226; experiment: Effect on RNA synthesis was determined by incorporation of radioligand into 8226 human myeloma cells at a concentration of 1 ug/mL. (*: >50% cell kill)
[11] = test system: L1210; experiment: Effect on RNA synthesis was determined by incorporation of radioligand into L1210 murine leukemia at a concentration of 0.1 ug/mL; details: Mus musculus
[12] = test system: L1210; experiment: Effect on protein synthesis was determined by incorporation of radioligand into L1210 murine leukemia at a concentration of 0.1 ug/mL; details: Mus musculus
[13] = test system: RPMI-8226; experiment: Effect on RNA synthesis was determined by incorporation of radioligand into 8226 human myeloma cells at a concentration of 10 ug/mL (*: >1 log cell kill)
[14] = test system: L1210; experiment: Effect on DNA synthesis was determined by incorporation of radioligand into L1210 murine leukemia at a concentration of 0.1 ug/mL; details: Mus musculus
[15] = test system: L1210; experiment: Effect on protein synthesis was determined by incorporation of radioligand into L1210 murine leukemia at a concentration of 0.01 ug/mL; details: Mus musculus
[16] = test system: RPMI-8226; experiment: Effect on DNA synthesis was determined by incorporation of radioligand into 8226 human myeloma cells at a concentration of 1 ug/mL. (*: >50% cell kill)
[17] = test system: RPMI-8226; experiment: Effect on DNA synthesis was determined by incorporation of radioligand into 8226 human myeloma cells at a concentration of 0.1 ug/mL
[18] = test system: RPMI-8226; experiment: Effect on DNA synthesis was determined by incorporation of radioligand into 8226 human myeloma cells at a concentration of 0.01 ug/mL
[19] = test system: RPMI-8226; experiment: Effect on RNA synthesis was determined by incorporation of radioligand into 8226 human myeloma cells at a concentration of 0.01 ug/mL
[20] = test system: RPMI-8226; experiment: Effect on RNA synthesis was determined by incorporation of radioligand into 8226 human myeloma cells at a concentration of 0.1 ug/mL
[21] = test system: L1210; experiment: Effect on DNA synthesis was determined by incorporation of radioligand into L1210 murine leukemia at a concentration of 10 ug/mL (*: >1 log cell kill); details: Mus musculus
[22] = test system: RPMI-8226; experiment: Effect on protein synthesis was determined by incorporation of radioligand into 8226 human myeloma cells at a concentration of 10 ug/mL (*: >1 log cell kill)
[23] = test system: L1210; experiment: Effect on DNA synthesis was determined by incorporation of radioligand into L1210 murine leukemia at a concentration of 0.01 ug/mL; details: Mus musculus
[24] = test system: L1210; experiment: Effect on protein synthesis was determined by incorporation of radioligand into L1210 murine leukemia at a concentration of 1 ug/mL. (*: >50% cell kill); details: Mus musculus
[25] = test system: RPMI-8226; experiment: Effect on protein synthesis was determined by incorporation of radioligand into 8226 human myeloma cells at a concentration of 0.01 ug/mL
[26] = test system: L1210; experiment: Effect on protein synthesis was determined by incorporation of radioligand into L1210 murine leukemia at a concentration of 10 ug/mL (*: >1 log cell kill); details: Mus musculus
[27] = test system: L1210; experiment: Effect on RNA synthesis was determined by incorporation of radioligand into L1210 murine leukemia at a concentration of 0.01 ug/mL; details: Mus musculus
[28] = test system: L1210; experiment: Effect on RNA synthesis was determined by incorporation of radioligand into L1210 murine leukemia at a concentration of 1 ug/mL. (*: >50% cell kill); details: Mus musculus
[29] = test system: P388; experiment: Antileukemic activity against P-388/ADR (P-388 cells resistant to adriamycin) in mice at a dose of 30 mg/kg administered intraperitoneally after 3 day treatment(Trial 2); details: Mus musculus, P388, ip, 72 h, route intraperitoneal
[30] = test system: P388; experiment: Antileukemic activity against P-388 in mice at a dose of 44 mg/kg administered intraperitoneally after 3 day treatment; details: Mus musculus, P388, ip, 72 h, route intraperitoneal
[31] = test system: P388; experiment: Antileukemic activity against P-388/ADR (P-388 cells resistant to adriamycin) in mice at a dose of 100 mg/kg administered intraperitoneally after 3 day treatment(Trial 2); details: Mus musculus, P388, ip, 72 h, route intraperitoneal
[32] = test system: P388; experiment: Antileukemic activity against P-388 in mice at a dose of 125 mg/kg administered intraperitoneally after 3 day treatment; details: Mus musculus, P388, ip, 72 h, route intraperitoneal
[33] = test system: P388; experiment: Antileukemic activity against P-388 in mice at a dose of 100 mg/kg administered intraperitoneally after 3 day treatment(Trial 2); details: Mus musculus, P388, ip, 72 h, route intraperitoneal
[34] = test system: P388; experiment: Antileukemic activity against P-388 in mice at a dose of 67 mg/kg administered intraperitoneally after 3 day treatment(Trial 2); details: Mus musculus, P388, ip, 72 h, route intraperitoneal
[35] = test system: P388; experiment: Antileukemic activity against P-388 in mice at a dose of 100 mg/kg administered intraperitoneally after 3 day treatment; details: Mus musculus, P388, ip, 72 h, route intraperitoneal
[36] = test system: P388; experiment: Antileukemic activity against P-388/ADR (P-388 cells resistant to adriamycin) n mice at a dose of 67 mg/kg administered intraperitoneally after 3 day treatment(Trial 2); details: Mus musculus, P388, ip, 72 h, route intraperitoneal
[37] = test system: P388; experiment: Antileukemic activity against P-388 in mice at a dose of 30 mg/kg administered intraperitoneally after 3 day treatment(Trial 2); details: Mus musculus, P388, ip, 72 h, route intraperitoneal
[38] = test system: P388; experiment: Antileukemic activity against P-388 in mice at a dose of 44 mg/kg administered intraperitoneally after 3 day treatment(Trial 2); details: Mus musculus, P388, ip, 72 h, route intraperitoneal
[39] = test system: P388; experiment: Antileukemic activity against P-388 in mice at a dose of 67 mg/kg administered intraperitoneally after 3 day treatment; details: Mus musculus, P388, ip, 72 h, route intraperitoneal
[40] = test system: P388; experiment: Antileukemic activity against P-388/ADR (P-388 cells resistant to adriamycin) in mice at a dose of 44 mg/kg administered intraperitoneally after 3 day treatment(Trial 2); details: Mus musculus, P388, ip, 72 h, route intraperitoneal

SMILES: CCN1CCCC(NCc2c3ccccc3c(CNC3CCCN(CC)C3)c3ccccc23)C1 (configuration not stated)
IC50 [1]: 0.04 µM
IC50 [3]: 5.63 µM

SMILES: C(=N\NC1=NCCN1)/c1c2ccccc2c(/C=N/NC2=NCCN2)c2ccccc12 [BISANTRENE]
inhibition at 1 µg/mL [4]: 43.6%
inhibition at 0.1 µg/mL [5]: 20.2%
IC50 [1]: 0.23 µM
inhibition at 10 µg/mL [6]: 96.1%
IC50 [7]: 0.38 µM
inhibition at 10 µg/mL [8]: 97.7%
inhibition at 1 µg/mL [9]: 41.9%
inhibition at 1 µg/mL [10]: 91.6%
inhibition at 0.1 µg/mL [11]: 24.1%
inhibition at 0.1 µg/mL [12]: 5.6%
inhibition at 10 µg/mL [13]: 92.9%
inhibition at 0.1 µg/mL [14]: 9.3%
inhibition at 0.01 µg/mL [15]: 0%
inhibition at 1 µg/mL [16]: 79.9%
inhibition at 0.1 µg/mL [17]: 33.3%
inhibition at 0.01 µg/mL [18]: 0%
inhibition at 0.01 µg/mL [19]: 0%
inhibition at 0.1 µg/mL [20]: 21%
inhibition at 10 µg/mL [21]: 66.8%
inhibition at 10 µg/mL [22]: 63.5%
inhibition at 0.01 µg/mL [23]: 1.8%
inhibition at 1 µg/mL [24]: 48.5%
inhibition at 0.01 µg/mL [25]: 0%
inhibition at 10 µg/mL [26]: 89%
inhibition at 0.01 µg/mL [27]: 0%
inhibition at 1 µg/mL [28]: 21.7%
IC50 [2]: 2.4 µM
IC50 [3]: 0.44 µM

SMILES: c1ccc2c(CNCCN3CCOCC3)c3ccccc3c(CNCCN3CCOCC3)c2c1
ILS at 30 mg/kg [29]: 5%
ILS at 44 mg/kg [30]: 28%
ILS at 100 mg/kg [31]: 40%
IC50 [1]: 0.02 µM
ILS at 125 mg/kg [32]: -81%
ILS at 100 mg/kg [33]: 9%
ILS at 67 mg/kg [34]: 9%
ILS at 100 mg/kg [35]: -34%
ILS at 67 mg/kg [36]: 15%
ILS at 30 mg/kg [37]: 4%
ILS at 44 mg/kg [38]: -5%
ILS at 67 mg/kg [39]: 33%
IC50 [2]: 0.03 µM
ILS at 44 mg/kg [40]: 15%
IC50 [3]: 0.02 µM

SMILES: c1ccc2c(CC3=NCCN3)c3ccccc3c(CC3=NCCN3)c2c1
IC50 [7]: 5.6 µM
IC50 [2]: 4.36 µM

SMILES: C(=N\Nc1nccs1)/c1c2ccccc2c(/C=N/Nc2nccs2)c2ccccc12
IC50 [1]: 6.26 µM
IC50 [7]: 200 µM
IC50 [2]: 8.8 µM
IC50 [3]: 5.9 µM

SMILES: NCCN(CCO)Cc1c2ccccc2c(CN(CCN)CCO)c2ccccc12
IC50 [2]: 5.76 µM
IC50 [3]: 5.04 µM

SMILES: OCCCNCc1c2ccccc2c(CNCCCO)c2ccccc12
IC50 [2]: 18.2 µM

SMILES: CN1CCN(Cc2c3ccccc3c(CN3CCN(C)CC3)c3ccccc23)CC1
IC50 [1]: 0.1 µM
IC50 [3]: 10.4 µM

Continued, in another order:

IC50 [1]: 27.8 µM
SMILES: OCCNCc1c2ccccc2c(CNCCO)c2ccccc12
IC50 [2]: 74.9 µM

IC50 [1]: 4.67 µM
SMILES: OCCCCCNCc1c2ccccc2c(CNCCCCCO)c2ccccc12
IC50 [2]: 24.7 µM
IC50 [3]: 13.4 µM

IC50 [1]: 0.23 µM
SMILES: OCCOCCNCc1c2ccccc2c(CNCCOCCO)c2ccccc12
IC50 [2]: 6.57 µM
IC50 [3]: 2.91 µM

IC50 [1]: 7.63 µM
SMILES: CC(C)N(CCNCc1c2ccccc2c(CNCCN(C(C)C)C(C)C)c2ccccc12)C(C)C
IC50 [3]: 15.5 µM

IC50 [1]: 11 µM
SMILES: CN(C)CCCNCc1c2ccccc2c(CNCCCN(C)C)c2ccccc12
IC50 [7]: 56.8 µM

IC50 [1]: 3.51 µM
SMILES: CNCCN(C)Cc1c2ccccc2c(CN(C)CCNC)c2ccccc12
IC50 [2]: 3.42 µM
IC50 [3]: 1.93 µM

IC50 [1]: 692 µM
SMILES: NCCNCc1c2ccccc2c(CNCCN)c2ccccc12
IC50 [2]: 4.14 µM
IC50 [3]: 0.42 µM

IC50 [1]: 0.29 µM
SMILES: CN(C)CCN(C)Cc1c2ccccc2c(CN(C)CCN(C)C)c2ccccc12
IC50 [2]: 0.7 µM
IC50 [3]: 0.14 µM
